According to US8835506B2, “Methods and related compositions for the treatment of cancer” (STC.UNM, priority 2008, dated 2014):
“Also recorded” adds a separate entry of the source.

How the values were obtained:
[1] = system: LNCaP cells; experiment: HyperCyt high-throughput flow cytometry, side scatter as endpoint for intracellular granularity; cell death seen as adherent cells becoming non-adherent; format: cell-based, human
Procedure: HyperCyt and High-throughput Data Analysis: The HyperCyt® cytometry analysis system interfaces a flow cytometer and an autosampler. While the sampling probe moves from well to well, a peristaltic pump sequentially aspirates a small volume from each well. A bubble of air, created by the continuously running pump, separates samples from individual wells. Sample and bubble volumes are determined by the time the sampling probe is in a well (sip time) or in taking air while moving from well to well (up time). HyperCyt® sampling of a single 384-well plate is completed in less than 15 minutes. This system has been validated using cell-based high-throughput endpoint assays for ligand binding, surface antigen expression, and immunophenotyping.
The air-bubble separated samples, collected by HyperCyt®, are delivered continuously to the cytometer. The data accumulates as a single, time-resolved file with gaps corresponding to air-bubbles. Both forward and side light scattering properties of treated LNCaP cells were measured using a 488 nm laser. Time-resolved data were analyzed by proprietary software (IDLQuery) set to search for 384 separate data clusters. Data from negative (0.1% DMSO) replicate wells were pooled and used to set gates that define granularity in vehicle-treated LNCaP cells. […] A gate is set reflecting this distinction that is then applied to each data cluster. These values are automatically exported to a Microsoft Excel spreadsheet template that calculates percent side scatter shift in individual treated samples.
(§1) Microscopic and Flow Cytometric Scatter Analysis: Light microscopy images of prostate cancer cells in culture were collected using an Olympus IX70 inverted microscope and a 20× objective. Flow cytometric analysis of forward scatter (FSC) and side scatter (SSC) were preformed using the UNM Shared Flow Cytometry Resource on a Cytomation Mo Flo, an Epics Elite, a Becton Dickinson FACScan, or a Becton Dickinson FACS Calibur.

[2] = system: PC3 human prostate cancer cells; experiment: Light microscopy of intracellular granularity; format: cell-based; conditions: FIG. 3
Text: as §1

[3] = system: prostate cancer cells; experiment: Cell death of human cancer cells cultured with AST; format: cell-based
Procedure: (§2) Cell Viability Assays: Two assays were used to determine cell viability; propidium iodide exclusion with flow cytometry and trypan blue exclusion with hemacytometry. Cells were treated with astemizole at the indicated concentrations for 24 to 96 hours prior to viability analysis. For propidium iodide cell viability determinations, cells were removed from the dishes with 0.05% trypsin. All cell culture medium was collected for the analysis in order to include any cells that may have released from the plate during the incubation period. Propidium iodide was added at a final concentration of 2 μg/ml and cells were analyzed on a Becton Dickinson FACScan flow cytometer. For trypan blue dye exclusion studies, all cell culture medium and cells removed by trypsinization were collected as above. An aliquot of these cells was re-suspended in 0.4% trypan blue. Both viable and non-viable cell counts were obtained by manual counting using a hemacytometer and light microscopy.

[4] = system: CWRv22 human prostate cancer cells; experiment: Cell death by trypan blue uptake and hemacytometry; format: cell-based
Procedure: as §2

[5] = system: LAPC4 human prostate cancer cells; experiment: Cell death by trypan blue uptake and hemacytometry; format: cell-based
Procedure: as §2

[6] = system: skin cancer cells (SCC); experiment: Cell death by trypan blue uptake and hemacytometry; format: cell-based; conditions: AST up to 15 μM; listed as AST
Procedure: as §2

[7] = system: PC3 androgen-independent human prostate cancer cells; experiment: Cell death by trypan blue uptake; format: cell-based
Procedure: as §2

[8] = system: LNCaP human prostate cancer cells; experiment: Cytotoxicity of AST in culture; format: cell-based
Procedure: as §2

[9] = system: 22Rv1 prostate cancer cells; experiment: Viability by trypan blue exclusion, astemizole alone or with docetaxel or radiation; format: cell-based, human; design: key to action determined with combination therapy: &: Additive action determined with combination therapy.; #: Synergistic action determined with combination therapy; conditions: for level of cell killing in combination: 24 hours
Procedure: as §2
Compounds according to the present invention may also function as radiosensitizers in addition to their anticancer activity. A study was performed showing prostate cancer cell killing actions of astemizole in combination with other therapeutic interventions. Astemizole alone produced a decrease in 22Rv1 prostate cancer cell viability with 8 μM 24 hours after treatment. […] This is true of the other agents which are described herein.

[10] = system: DU145 cells; experiment: Cell proliferation assay (CyQUANT NF); format: cell-based, human; conditions: FIG. 7, 4 days
Procedure: (§3) Cell Proliferation Assay: To determine the number of proliferating cells after astemizole treatment, cells were seeded in 96-well tissue culture plates at 5,000 cells per well in 100 uL of DMEM/FCS. Two days after plating, cells were treated with astemizole at the indicated concentrations. Four days after treatment, cell proliferation was determined using the CyQUANT NF Cell Proliferation Assay Kit (Invitrogen, Carlsbad, Calif.) according to the kit instructions.

[11] = system: LAPC4 cells; experiment: Cell proliferation assay (CyQUANT NF); format: cell-based, human; conditions: FIG. 7, 4 days
Procedure: as §3

[12] = system: LNCaP cells; experiment: Cell proliferation assay (CyQUANT NF); format: cell-based, human; conditions: FIG. 7, 4 days
Procedure: as §3

[13] = system: PC3 cells; experiment: Cell proliferation assay (CyQUANT NF); format: cell-based, human; conditions: over a 4 day period
Procedure: as §3

[14] = system: PC3 cells; experiment: Hypodiploid population by propidium iodide incorporation and flow cytometry (apoptosis hallmarks); format: cell-based, human
Text: Multiple mechanisms could account for the cell death observed in cancer cells from treatment with AST. […] Thus, administering the agents identified above that induce intracellular granularity in cancer cells may produce cell death through an autophagic mechanism.

[15] = system: LC3 II band in CWRv22 cells; experiment: LC3 II band induction (autophagy marker); format: cell-based, human; conditions: 10 μM AST, 6 hours
[16] = cited from earlier work
[17] = cited from earlier work; remark: listed apart in the source
[18] = in vivo; cited from earlier work
[19] = rare cases, patients exceeding recommended doses; cited from earlier work
[20] = system: advanced prostate cancer; conditions: advanced prostate cancer patients, on average; cited from earlier work

1-[(4-fluorophenyl)methyl]-N-[1-[2-(4-ethoxyphenyl)ethyl]-4-piperidyl]benzoimidazol-2-amine [Astemizole]
cancer cell intracellular granularity by SSC flow cytometry ([1]; FIG. 2, prostate cancer cells): significantly increase | dose at which cell death is seen ([1]; FIG. 4 dose-response): 10 µM | dose range of AST-induced increases in intracellular granularity ([1]; FIG. 4 dose-response): up to 3 μM | intracellular granularity observed by light microscopy [2]: increase in intracellular granularity | concentration at which cells undergo rapid cell death [3]: above 5 μM | cell killing by AST treatment [4]: dose-response to cell killing | cells dead ([4]; 6 μM AST, within 24 hours): 80% | cell killing by AST treatment [5]: dose-response to cell killing | cells dead ([5]; 6 μM AST, within 24 hours): 80% | cell death by AST treatment [6]: resistant to cell death; also recorded: not killed | time to cell death after treatment [7]: ≤ 24 h | cell death ([7]; 10 μM AST, 48 hours): greater than 25% | cells dead ([7]; 15 μM AST, 48 hours): ~100% | cell killing by AST treatment [8]: dose-response to cell killing | action determined with combination therapy ([9]; 2 μM astemizole + 10 nM docetaxel): & | % Viability, Mean (SD) ([9]; 2 μM astemizole + 10 nM docetaxel, 24 h, n = 3): 71.3% | action determined with combination therapy ([9]; 2 μM astemizole + 10 Gy radiation): & | % Viability, Mean (SD) ([9]; 2 μM astemizole + 10 Gy radiation, 24 h, n = 3): 63.5% | % Viability, Mean (SD) ([9]; 2 μM astemizole alone, 24 h, n = 3): 88.2 (4.9) % | action determined with combination therapy ([9]; 4 μM astemizole + 10 nM docetaxel): & | % Viability, Mean (SD) ([9]; 4 μM astemizole + 10 nM docetaxel, 24 h, n = 3): 74.4% | action determined with combination therapy ([9]; 4 μM astemizole + 10 Gy radiation): # | % Viability, Mean (SD) ([9]; 4 μM astemizole + 10 Gy radiation, 24 h, n = 3): 57.4% | % Viability, Mean (SD) ([9]; 4 μM astemizole alone, 24 h, n = 3): 90.6 (1.2) % | action determined with combination therapy ([9]; 8 μM astemizole + 10 nM docetaxel): & | % Viability, Mean (SD) ([9]; 8 μM astemizole + 10 nM docetaxel, 24 h, n = 3): 49.7% | action determined with combination therapy ([9]; 8 μM astemizole + 10 Gy radiation): # | % Viability, Mean (SD) ([9]; 8 μM astemizole + 10 Gy radiation, 24 h, n = 3): 22.2% | % Viability, Mean (SD) ([9]; 8 μM astemizole alone, 24 h, n = 3): 64.3 (8.1) % | cell viability, astemizole alone ([9]; 8 μM, 24 hours after treatment): decrease | level of cell killing in combination ([9]; 2, 4 and 8 μM astemizole with 10 nM docetaxel): additive levels of cell killing | level of cell killing in combination ([9]; 2, 4 and 8 μM astemizole with 10 gray radiation): synergistic levels of cell killing | prostate cancer cell growth [10]: significant reduction | prostate cancer cell growth [11]: significant reduction | prostate cancer cell growth [12]: significant reduction | concentration inhibiting cell growth [13]: ≥ 1 µM | hallmarks of apoptotic cell death (hypodiploid population) [14]: does not produce hallmarks of apoptotic cell death | LC3 II band associated with autophagic pathways [15]: induction of an LC3 II band | LC3 II band associated with autophagic pathways ([15]; listed as AST): increase in the LC3 II band | absorption ([16]; from the gastrointestinal tract): rapidly absorbed | excretion ([16]; man): excreted as metabolites chiefly in the feces | half-life of the active ingredient ([16]; man): approximately 1 day | metabolism ([16]; man): extensively metabolized | protein binding [17]: around 96% | crossing of the blood-brain barrier [18]: does not cross the blood-brain barrier | serious life-threatening cardiovascular adverse events [19]: QT-prolongation, torsades de pointes, and other ventricular arrhythmias

CC(=O)O[C@@]12CO[C@@H]1C[C@H](O)[C@@]1(C)C(=O)[C@H](O)C3=C(C)[C@@H](OC(=O)[C@H](O)[C@@H](NC(=O)OC(C)(C)C)c4ccccc4)C[C@@](O)([C@@H](OC(=O)c4ccccc4)[C@H]21)C3(C)C [Taxotere]
prolongation of life [20]: 2.5 months

CC(=O)O[C@@]12CO[C@@H]1C[C@H](O)[C@@]1(C)C(=O)[C@H](O)C3=C(C)[C@@H](OC(=O)[C@H](O)[C@@H](NC(=O)OC(C)(C)C)c4ccccc4)C[C@@](O)([C@@H](OC(=O)c4ccccc4)[C@H]21)C3(C)C [docetaxel]
viability at 0.01 µM ([9]; Homo sapiens, 22Rv1, 10 nM docetaxel alone (0 μM astemizole), 24 h, n = 3, read-out: % Viability, Mean (SD)): 80.7%
